According to ChEMBL document CHEMBL5316318, “Structural Modification and Pharmacological Evaluation of Substituted Quinoline-5,8-diones as Potent NSD2 Inhibitors” (J Med Chem, 2023):
The source made the active and inactive calls. The calls are words filed in the database; no cut-off is given here.

Experiments:
[1] = biological target: Serine/threonine-protein kinase mTOR (Homo sapiens) (UniProt P42345); assay: Modulation of mTOR signaling pathway in human KMS-11 cells at 1 uM incubated for 48 hrs by RNA-Seq analysis; assay type: cell-based; settings: filed as modulator
[2] = biological target: T1, Histone-lysine N-methyltransferase NSD2 (Homo sapiens, UniProt O96028); assay: Inhibition of recombinant human NSD2 (941 to 1240 residues) using SAM as substrate incubated for 3 hrs by AlphaLISA assay
T1 sequence (O96028 whole entry): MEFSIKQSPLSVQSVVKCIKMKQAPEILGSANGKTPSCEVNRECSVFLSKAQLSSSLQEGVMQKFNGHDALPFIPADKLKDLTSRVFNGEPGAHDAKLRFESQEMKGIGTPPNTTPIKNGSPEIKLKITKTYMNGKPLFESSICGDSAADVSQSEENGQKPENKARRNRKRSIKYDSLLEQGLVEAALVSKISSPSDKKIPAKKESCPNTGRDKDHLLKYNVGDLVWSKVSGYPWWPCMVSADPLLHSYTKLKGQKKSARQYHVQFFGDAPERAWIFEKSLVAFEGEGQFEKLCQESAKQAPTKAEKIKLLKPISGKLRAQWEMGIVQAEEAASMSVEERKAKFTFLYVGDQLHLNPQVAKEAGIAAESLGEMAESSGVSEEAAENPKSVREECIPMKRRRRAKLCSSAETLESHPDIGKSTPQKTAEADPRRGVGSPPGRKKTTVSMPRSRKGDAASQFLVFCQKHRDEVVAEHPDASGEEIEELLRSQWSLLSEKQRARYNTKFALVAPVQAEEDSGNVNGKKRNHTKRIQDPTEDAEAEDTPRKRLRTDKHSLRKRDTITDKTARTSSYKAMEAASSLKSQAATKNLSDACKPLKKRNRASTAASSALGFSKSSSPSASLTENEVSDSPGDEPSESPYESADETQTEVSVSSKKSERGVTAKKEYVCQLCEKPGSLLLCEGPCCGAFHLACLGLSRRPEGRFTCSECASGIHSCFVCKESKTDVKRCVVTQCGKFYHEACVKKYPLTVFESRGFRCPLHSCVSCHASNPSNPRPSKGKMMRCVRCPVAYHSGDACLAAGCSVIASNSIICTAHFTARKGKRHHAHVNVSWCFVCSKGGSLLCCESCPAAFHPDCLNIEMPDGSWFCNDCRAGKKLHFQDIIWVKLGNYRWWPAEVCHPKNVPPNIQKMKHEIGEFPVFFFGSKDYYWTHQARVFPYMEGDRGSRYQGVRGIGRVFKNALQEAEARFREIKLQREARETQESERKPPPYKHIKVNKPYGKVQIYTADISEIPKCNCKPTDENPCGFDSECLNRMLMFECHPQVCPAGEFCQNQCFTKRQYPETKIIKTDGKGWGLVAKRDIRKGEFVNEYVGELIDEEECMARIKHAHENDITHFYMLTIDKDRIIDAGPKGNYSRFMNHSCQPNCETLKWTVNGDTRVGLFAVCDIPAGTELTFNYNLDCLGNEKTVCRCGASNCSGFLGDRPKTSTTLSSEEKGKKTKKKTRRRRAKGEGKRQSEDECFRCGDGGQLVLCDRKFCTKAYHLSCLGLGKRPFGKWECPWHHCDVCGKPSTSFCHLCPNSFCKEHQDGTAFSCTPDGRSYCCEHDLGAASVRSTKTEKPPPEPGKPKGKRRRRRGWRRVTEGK

[3] = system: KMS-11; assay: Antiproliferative activity against human KMS-11 cells assessed as inhibition of cell growth incubated for 6 days by CCK-8 assay; assay type: functional, cell-based; settings: KMS-11, 144 h
[4] = Apparent permeability coefficient, Papp in MDCK cells; assay type: ADME, cell-based, Canis lupus familiaris; settings: dog
[5] = Tmax in ICR mouse at 3 mg/kg, po measured for 24 hrs by LC-MS/MS analysis; assay type: ADME, organism-based; settings: in vivo
[6] = Observed clearance in ICR mouse at 1 mg/kg, iv measured for 24 hrs by LC-MS/MS analysis; assay type: ADME, organism-based; settings: in vivo
[7] = Half life in ICR mouse at 1 mg/kg, iv measured for 24 hrs by LC-MS/MS analysis; assay type: ADME, organism-based; settings: in vivo
[8] = biological target: Histone-lysine N-methyltransferase NSD3 (Homo sapiens, UniProt Q9BZ95); assay: Inhibition of NSD3 (unknown origin)
[9] = biological target: Protein arginine N-methyltransferase 1 (Homo sapiens, UniProt Q99873); assay: Inhibition of PRMT1 (unknown origin) by AlphaLISA assay
Chain of Protein arginine N-methyltransferase 1 (Q99873 whole entry): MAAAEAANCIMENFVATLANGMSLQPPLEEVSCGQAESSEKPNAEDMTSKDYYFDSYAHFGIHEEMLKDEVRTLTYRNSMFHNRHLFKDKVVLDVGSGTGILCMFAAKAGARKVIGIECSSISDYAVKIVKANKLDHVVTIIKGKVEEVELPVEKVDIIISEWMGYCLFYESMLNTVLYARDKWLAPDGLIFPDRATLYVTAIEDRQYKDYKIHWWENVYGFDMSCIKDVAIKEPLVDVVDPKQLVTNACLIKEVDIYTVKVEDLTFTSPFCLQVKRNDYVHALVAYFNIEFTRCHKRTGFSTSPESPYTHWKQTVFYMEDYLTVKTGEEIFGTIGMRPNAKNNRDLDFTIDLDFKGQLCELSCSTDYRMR

[10] = biological target: Histone-lysine N-methyltransferase 2A (Homo sapiens, UniProt Q03164); assay: Inhibition of MLL1 (unknown origin) using SAM as substrate preincubated for 10 mins followed by substrate addition and measured after 4 hrs by HTRF analysis
Chain of Histone-lysine N-methyltransferase 2A (Q03164 1-2718 limits assumed): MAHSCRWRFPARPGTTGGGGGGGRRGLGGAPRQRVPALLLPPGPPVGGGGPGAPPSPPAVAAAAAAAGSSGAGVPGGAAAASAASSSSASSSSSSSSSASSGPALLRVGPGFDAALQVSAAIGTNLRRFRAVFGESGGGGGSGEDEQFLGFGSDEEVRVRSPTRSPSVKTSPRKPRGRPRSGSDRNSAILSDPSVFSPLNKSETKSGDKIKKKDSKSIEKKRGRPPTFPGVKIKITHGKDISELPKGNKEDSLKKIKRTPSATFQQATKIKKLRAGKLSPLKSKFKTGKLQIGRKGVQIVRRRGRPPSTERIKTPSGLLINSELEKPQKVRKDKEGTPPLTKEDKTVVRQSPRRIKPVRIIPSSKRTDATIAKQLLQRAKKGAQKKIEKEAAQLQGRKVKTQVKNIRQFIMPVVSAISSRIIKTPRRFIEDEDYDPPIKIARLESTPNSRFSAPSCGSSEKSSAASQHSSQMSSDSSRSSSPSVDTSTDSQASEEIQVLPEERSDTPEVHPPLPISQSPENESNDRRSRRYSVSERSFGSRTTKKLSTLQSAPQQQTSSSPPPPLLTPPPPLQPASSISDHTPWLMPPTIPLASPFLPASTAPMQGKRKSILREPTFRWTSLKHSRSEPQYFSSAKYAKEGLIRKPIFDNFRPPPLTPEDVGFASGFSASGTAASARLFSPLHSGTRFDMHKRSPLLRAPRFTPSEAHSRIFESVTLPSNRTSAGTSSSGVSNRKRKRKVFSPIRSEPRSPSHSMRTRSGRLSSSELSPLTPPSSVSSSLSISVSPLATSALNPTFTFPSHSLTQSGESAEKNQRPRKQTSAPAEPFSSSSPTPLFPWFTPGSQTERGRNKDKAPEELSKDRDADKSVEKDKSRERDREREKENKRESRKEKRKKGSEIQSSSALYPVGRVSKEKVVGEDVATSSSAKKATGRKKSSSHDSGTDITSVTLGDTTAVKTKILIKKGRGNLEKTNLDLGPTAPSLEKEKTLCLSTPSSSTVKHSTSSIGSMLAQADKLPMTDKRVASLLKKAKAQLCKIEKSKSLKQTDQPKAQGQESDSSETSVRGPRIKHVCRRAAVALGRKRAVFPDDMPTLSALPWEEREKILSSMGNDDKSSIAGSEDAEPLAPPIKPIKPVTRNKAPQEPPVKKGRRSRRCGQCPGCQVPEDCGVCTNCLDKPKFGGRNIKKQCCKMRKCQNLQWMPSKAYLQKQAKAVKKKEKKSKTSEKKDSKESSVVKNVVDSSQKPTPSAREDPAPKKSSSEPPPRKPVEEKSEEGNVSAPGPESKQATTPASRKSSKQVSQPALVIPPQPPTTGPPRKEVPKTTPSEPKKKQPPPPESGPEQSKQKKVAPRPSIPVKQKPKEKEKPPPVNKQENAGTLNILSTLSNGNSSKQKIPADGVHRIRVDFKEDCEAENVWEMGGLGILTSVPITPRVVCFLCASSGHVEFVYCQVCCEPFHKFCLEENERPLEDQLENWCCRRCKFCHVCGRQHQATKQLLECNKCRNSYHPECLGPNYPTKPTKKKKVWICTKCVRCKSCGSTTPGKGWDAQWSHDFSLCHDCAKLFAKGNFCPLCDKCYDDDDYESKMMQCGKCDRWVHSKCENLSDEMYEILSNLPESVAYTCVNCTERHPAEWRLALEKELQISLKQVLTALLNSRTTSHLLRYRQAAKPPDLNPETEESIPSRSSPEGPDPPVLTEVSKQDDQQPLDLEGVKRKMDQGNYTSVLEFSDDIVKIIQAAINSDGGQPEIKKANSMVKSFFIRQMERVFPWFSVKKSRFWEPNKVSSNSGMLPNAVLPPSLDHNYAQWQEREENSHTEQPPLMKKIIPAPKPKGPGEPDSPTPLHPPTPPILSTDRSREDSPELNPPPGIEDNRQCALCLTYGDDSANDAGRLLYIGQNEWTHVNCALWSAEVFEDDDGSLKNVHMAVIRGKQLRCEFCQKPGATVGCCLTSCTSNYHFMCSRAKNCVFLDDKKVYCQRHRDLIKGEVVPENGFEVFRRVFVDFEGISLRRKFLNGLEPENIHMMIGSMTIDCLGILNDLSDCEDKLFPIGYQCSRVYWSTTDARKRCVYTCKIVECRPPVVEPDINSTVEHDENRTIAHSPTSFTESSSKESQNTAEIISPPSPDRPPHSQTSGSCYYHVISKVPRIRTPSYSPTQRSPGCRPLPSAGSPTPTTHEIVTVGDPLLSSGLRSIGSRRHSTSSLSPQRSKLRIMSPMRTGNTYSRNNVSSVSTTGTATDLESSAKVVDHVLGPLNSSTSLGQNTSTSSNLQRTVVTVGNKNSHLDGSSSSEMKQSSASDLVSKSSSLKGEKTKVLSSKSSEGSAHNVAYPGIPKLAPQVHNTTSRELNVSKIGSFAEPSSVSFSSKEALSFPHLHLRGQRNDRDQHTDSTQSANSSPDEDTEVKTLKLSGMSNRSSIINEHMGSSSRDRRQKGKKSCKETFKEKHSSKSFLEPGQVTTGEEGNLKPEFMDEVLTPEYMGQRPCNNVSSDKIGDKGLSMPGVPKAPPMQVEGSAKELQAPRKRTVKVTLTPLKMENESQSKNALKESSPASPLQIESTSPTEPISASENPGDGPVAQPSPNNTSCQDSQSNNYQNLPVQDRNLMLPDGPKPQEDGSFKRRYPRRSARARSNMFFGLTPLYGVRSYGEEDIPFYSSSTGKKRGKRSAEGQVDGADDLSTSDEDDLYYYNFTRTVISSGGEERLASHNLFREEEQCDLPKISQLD
Chain of Histone-lysine N-methyltransferase 2A (Q03164 2719-3969 limits assumed): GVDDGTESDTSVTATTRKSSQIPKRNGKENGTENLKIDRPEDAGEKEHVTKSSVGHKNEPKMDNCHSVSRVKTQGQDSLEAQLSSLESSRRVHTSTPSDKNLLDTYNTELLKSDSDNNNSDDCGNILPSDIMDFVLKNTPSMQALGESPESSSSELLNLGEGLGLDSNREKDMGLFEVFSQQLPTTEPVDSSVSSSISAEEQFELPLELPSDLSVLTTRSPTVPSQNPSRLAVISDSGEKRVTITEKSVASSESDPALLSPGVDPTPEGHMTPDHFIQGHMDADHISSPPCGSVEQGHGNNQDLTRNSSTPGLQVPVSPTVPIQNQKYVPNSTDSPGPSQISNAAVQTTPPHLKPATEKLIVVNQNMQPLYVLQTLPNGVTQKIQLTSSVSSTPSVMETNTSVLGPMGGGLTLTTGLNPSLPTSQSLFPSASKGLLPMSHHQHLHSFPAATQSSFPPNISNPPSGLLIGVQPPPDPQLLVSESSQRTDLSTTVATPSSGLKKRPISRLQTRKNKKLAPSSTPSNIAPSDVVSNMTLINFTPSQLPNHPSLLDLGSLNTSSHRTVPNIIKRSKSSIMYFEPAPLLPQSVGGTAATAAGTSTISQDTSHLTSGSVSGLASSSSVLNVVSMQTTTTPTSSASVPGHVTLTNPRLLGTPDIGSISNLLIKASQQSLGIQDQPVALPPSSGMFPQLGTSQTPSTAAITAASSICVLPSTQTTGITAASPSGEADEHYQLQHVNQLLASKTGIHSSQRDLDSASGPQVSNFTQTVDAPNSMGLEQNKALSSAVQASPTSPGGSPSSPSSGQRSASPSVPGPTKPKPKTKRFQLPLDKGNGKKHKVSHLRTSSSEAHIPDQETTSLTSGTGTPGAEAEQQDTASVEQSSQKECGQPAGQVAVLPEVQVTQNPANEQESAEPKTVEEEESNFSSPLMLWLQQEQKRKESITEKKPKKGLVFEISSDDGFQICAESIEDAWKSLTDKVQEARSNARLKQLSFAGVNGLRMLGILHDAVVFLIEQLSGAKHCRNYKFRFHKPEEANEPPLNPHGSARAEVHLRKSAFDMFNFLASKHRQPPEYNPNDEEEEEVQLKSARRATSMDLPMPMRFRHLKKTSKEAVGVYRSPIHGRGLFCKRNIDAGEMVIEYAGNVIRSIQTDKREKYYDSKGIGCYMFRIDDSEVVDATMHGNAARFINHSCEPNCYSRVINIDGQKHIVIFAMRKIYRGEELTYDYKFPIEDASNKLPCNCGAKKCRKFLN

[11] = biological target: Histone-lysine N-methyltransferase 2D (Homo sapiens, UniProt O14686); assay: Inhibition of MLL2 (unknown origin) using SAM as substrate preincubated for 10 mins followed by substrate addition and measured after 4 hrs by HTRF analysis
[12] = biological target: Histone-lysine N-methyltransferase NSD2 (Homo sapiens) (UniProt O96028); assay: Binding affinity to human recombinant NSD2 (941 to 1240 residues) at 200 uM by saturation transfer difference based NMR analysis
[13] = system: THP-1; assay: Antiproliferative activity against human THP-1 cells harboring wild type NSD2 assessed as inhibition of cell growth incubated for 6 days by CCK-8 assay; assay type: functional, cell-based; settings: THP-1, 144 h
[14] = system: U-937; assay: Antiproliferative activity against human U-937 cells harboring wild type NSD2 assessed as inhibition of cell growth incubated for 6 days by CCK-8 assay; assay type: functional, cell-based; settings: U-937, 144 h
[15] = biological target: Ras-related protein R-Ras2 (Homo sapiens) (UniProt P62070); assay: Inhibition of RRAS2 transcriptional activation in human KMS-11 cells assessed as reduction in RRAS2 mRNA expression at 0.5 uM by qRT-PCR analysis; assay type: cell-based
Chain of Ras-related protein R-Ras2 (Homo sapiens) (P62070 whole entry): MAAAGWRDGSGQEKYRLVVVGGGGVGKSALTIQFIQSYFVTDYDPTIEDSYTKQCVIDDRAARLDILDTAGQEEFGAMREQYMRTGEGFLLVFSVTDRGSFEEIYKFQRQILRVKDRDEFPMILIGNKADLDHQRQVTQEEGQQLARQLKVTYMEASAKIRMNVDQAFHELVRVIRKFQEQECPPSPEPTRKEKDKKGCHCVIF

[16] = biological target: Basement membrane-specific heparan sulfate proteoglycan core protein (Homo sapiens) (UniProt P98160); assay: Inhibition of HSPG2 transcriptional activation in human KMS-11 cells assessed as reduction in HSPG2 mRNA expression at 0.5 uM by qRT-PCR analysis; assay type: cell-based
[17] = biological target: Ras-related protein R-Ras2 (Homo sapiens) (UniProt P62070); assay: Inhibition of RRAS2 transcriptional activation in human KMS-11 cells assessed as reduction in H3K36me2 level in promoter region by ChIP-qPCR analysis; assay type: cell-based
[18] = biological target: Basement membrane-specific heparan sulfate proteoglycan core protein (Homo sapiens) (UniProt P98160); assay: Inhibition of HSPG2 transcriptional activation in human KMS-11 cells assessed as reduction in H3K36me2 level in promoter region by ChIP-qPCR analysis; assay type: cell-based
[19] = system: KMS-11; assay: Induction of apoptosis in human KMS-11 cells assessed as early apoptotic cells at 0.2 uM incubated for 72 hrs by Annexin V-FITC/PI staining based flow cytometry analysis (reference value: 3.96%); assay type: functional
[20] = system: KMS-11; assay: Induction of apoptosis in human KMS-11 cells assessed as live cells at 0.8 uM incubated for 72 hrs by Annexin V-FITC/PI staining based flow cytometry analysis (reference value: 83.1%); assay type: functional
[21] = system: KMS-11; assay: Induction of apoptosis in human KMS-11 cells assessed as upregulation of BID protein expression at 0.2 to 0.8 uM by Western blot analysis; assay type: functional, cell-based; settings: dose 0.2-0.8 µM

In the case of CC#CC(=O)NC12CC(NC3=C(Cl)C(=O)c4ncccc4C3=O)(C1)C2, the Activity [1] is reported as “Active”, the IC50 [2] is reported as 230 nM and the IC50 [3] is reported as 270 nM. For the same compound, the Papp [4] was 45 ×10⁻⁶ cm/s, the Tmax [5] was 1.5 h and the clearance [6] was 3.8 mL/min/kg. The half-life [7] was 8.53 h, the IC50 [8] was 750 nM and the IC50 [9] was > 10000 nM. For the same compound, the IC50 [10] was > 10000 nM, the IC50 [11] was > 10000 nM and the Activity [12] was “Active”. For the same compound, the IC50 [13] was 2640 nM, the IC50 [14] was 4900 nM and the inhibition [15] was “Active”. For the same compound, the inhibition [16] was “Active”, the inhibition [17] was “Active” and the inhibition [18] was “Active”. For the same compound, the Activity [19] was 4.34%, the Activity [20] was 55% and the Activity [21] was “Active”.
